Source: ChEMBL document CHEMBL1201862, “PubChem BioAssay data set” (2004)
The source made the active and inactive calls.

Columns and labels:
[1] = target: Nuclear receptor subfamily 5 group A member 2 (Homo sapiens, UniProt O00482); format: functional, cell-based;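 also: HEK293T cells transfected with LRH-1 and a StAR promoter luciferase reporter; potency for inhibitors that lower LRH-1 driven reporter light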
[2] = target: Steroidogenic factor 1 (Homo sapiens, UniProt Q13285); test: Counterscreen for inverse agonists of the liver receptor homolog-1 (LRH-1; NR5A2): Luminescence-based cell-based high throughput dose response assay to identify inverse agonists of the Steroidogenic Factor 1 Nuclear Receptor (SF1; NR5A1).; format: functional
[3] = nonselective StAR promoter luciferase inhibitors – cell-based, luminescence, luciferase reporter, counter-screen for LRH-1 inverse agonist project, dose response (AID 651969); format: functional
[4] = target: Protein Wnt-3a (Mus musculus, UniProt P27467); test: antagonism of Wnt3a pathway luciferase reporter – Wnt-LIGHT cells, luminescence, selectivity assay for Gli-SUFU antagonist project, dose response (AID 651570); format: functional; settings: read-out: IC50_Mean;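 also: Wnt-LIGHT reporter cells stimulated with conditioned medium from Wnt3a-producing cells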
[5] = decrease of insulin promoter-GFP reporter – imaging, high-content screening, mouse beta cells (AID 1628); format: functional; settings: MIN6
[6] = MIN6 cell viability loss – mouse insulinoma, cytotoxicity control, dose response (AID 2122); format: functional;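 also: confirmatory high-throughput counterscreen run to flag cytotoxic compounds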
[7] = Trypanosoma cruzi growth suppression in host cells – NIH3T3 host cells, beta-gal luminescence, confirmation (AID 2044); format: functional, cell-based;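 also: intracellular parasites grown in NIH/3T3 mouse fibroblasts as host cells; luminescent beta-galactosidase reporter signal from transgenic T. cruzi replicating inside host cells; inhibitors lower the luminescence signal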
[8] = microbe, parasite or virus in culture; format: functional; settings: Mycobacterium tuberculosis
[9] = viability of PTEN-deleted HCT116 cells – cell-based, HCT116 PTEN knockout, dose response (AID 1047); format: functional;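 also: HCT116 colon tumor cells with PTEN knocked out; cells exposed to compound for 60 hours before readout; potency for loss of cell viability measured by luminescence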
[10] = NIH3T3 cell viability loss – ATP luminescence, mouse fibroblasts, counter-screen, dose response (AID 2010); format: functional, cell-based;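 also: cells exposed to compound for about 90 hours before reading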
[11] = viability of HCT116 lacking mutant beta-catenin – cell-based, human colon tumor, dose response (AID 1045); format: functional;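 also: HCT116 colon tumor cells with beta catenin knocked out; cells exposed to compound for 60 hours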
[12] = target: T1, Ubiquitin-conjugating enzyme E2 N (Homo sapiens, UniProt P61088); format: functional;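 also: Dose-response confirmation in a TR-FRET assay detecting UBC13-driven polyubiquitin chain formation, inhibition measured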
T1 sequence (P61088 whole entry): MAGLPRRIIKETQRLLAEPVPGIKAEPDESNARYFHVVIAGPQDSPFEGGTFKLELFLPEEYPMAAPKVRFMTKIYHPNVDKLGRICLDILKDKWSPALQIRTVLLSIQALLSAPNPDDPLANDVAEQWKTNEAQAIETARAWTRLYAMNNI

[13] = target: DNA (cytosine-5)-methyltransferase 1 (Homo sapiens, UniProt P26358); test: inhibition of DNA methylation by DNMT1 – biochemical, fluorescent molecular beacon, confirmation (AID 602386); format: functional
[14] = target: DNA repair and recombination protein RAD54-like (Homo sapiens, UniProt Q92698); test: RAD54 Holliday junction migration blockers – biochemical, fluorescence, cherry-picked samples, dose series, confirmation (AID 651657); format: functional
[15] = target: ADP-ribosylation factor GTPase-activating protein 1 (Rattus norvegicus, UniProt Q62848); test: Fluorescence polarization-based biochemical high throughput dose response screening assay to identify inhibitors of ADP-ribosylation factor GTPase activating protein 1 (ARFGAP1).; format: functional
[16] = target: Tyrosine-protein phosphatase non-receptor type 11 (Homo sapiens, UniProt Q06124); test: PTPN11 enzyme inhibitors – biochemical, selectivity assay for STEP inhibitor project, dose response (AID 602367); format: functional; settings: read-out: IC50_Mean
[17] = target: Tyrosine-protein phosphatase non-receptor type 5 (Homo sapiens, UniProt P54829); test: PTPN5 enzyme inhibition – biochemical, fluorescence intensity, uHTS hits, confirmation (AID 602372); format: functional; settings: read-out: IC50_Mean
[18] = target: Dual specificity protein phosphatase 3 (Homo sapiens, UniProt P51452); test: VHR phosphatase inhibition, dose response, selectivity assay for STEP inhibitor project, biochemical (AID 602374); format: functional; settings: read-out: IC50_Mean
[19] = target: T2, DNA repair protein RAD52 homolog (Homo sapiens, UniProt P43351); format: functional, biochemical
T2 sequence (P43351 whole entry): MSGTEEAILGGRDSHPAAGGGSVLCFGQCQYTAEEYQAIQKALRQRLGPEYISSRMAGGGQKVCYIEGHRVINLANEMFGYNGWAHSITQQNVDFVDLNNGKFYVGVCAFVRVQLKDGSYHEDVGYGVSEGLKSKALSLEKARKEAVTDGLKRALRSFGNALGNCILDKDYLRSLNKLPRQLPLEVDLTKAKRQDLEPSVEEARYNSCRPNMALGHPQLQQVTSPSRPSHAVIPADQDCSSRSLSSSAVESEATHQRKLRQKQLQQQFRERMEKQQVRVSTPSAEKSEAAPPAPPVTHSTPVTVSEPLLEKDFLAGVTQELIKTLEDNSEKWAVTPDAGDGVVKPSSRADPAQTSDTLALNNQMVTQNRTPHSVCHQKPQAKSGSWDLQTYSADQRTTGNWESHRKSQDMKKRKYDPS

[20] = target: T3, Carboxy-terminal domain RNA polymerase II polypeptide A small phosphatase 1 (Homo sapiens, UniProt Q9GZU7); test: CTDSP1 inhibitors, concentration-response, biochemical, absorbance readout, ultra-high-throughput screen actives (AID 540297); format: functional
T3 sequence (Q9GZU7 whole entry): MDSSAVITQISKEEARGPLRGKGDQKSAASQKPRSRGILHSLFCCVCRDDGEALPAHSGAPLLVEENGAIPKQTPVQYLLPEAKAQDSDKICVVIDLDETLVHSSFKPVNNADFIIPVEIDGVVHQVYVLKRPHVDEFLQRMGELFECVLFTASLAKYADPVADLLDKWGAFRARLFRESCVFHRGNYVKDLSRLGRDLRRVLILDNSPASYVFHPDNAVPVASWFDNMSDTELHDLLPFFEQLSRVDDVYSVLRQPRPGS

[21] = target: T4, Rac GTPase-activating protein 1 (Homo sapiens, UniProt Q9H0H5); test: blockers of MgcRacGAP-driven Rac1 GTP hydrolysis – biochemical, ADP Hunter fluorescence, primary and confirmatory, confirmation (AID 624330); format: functional
T4 sequence (Q9H0H5 whole entry): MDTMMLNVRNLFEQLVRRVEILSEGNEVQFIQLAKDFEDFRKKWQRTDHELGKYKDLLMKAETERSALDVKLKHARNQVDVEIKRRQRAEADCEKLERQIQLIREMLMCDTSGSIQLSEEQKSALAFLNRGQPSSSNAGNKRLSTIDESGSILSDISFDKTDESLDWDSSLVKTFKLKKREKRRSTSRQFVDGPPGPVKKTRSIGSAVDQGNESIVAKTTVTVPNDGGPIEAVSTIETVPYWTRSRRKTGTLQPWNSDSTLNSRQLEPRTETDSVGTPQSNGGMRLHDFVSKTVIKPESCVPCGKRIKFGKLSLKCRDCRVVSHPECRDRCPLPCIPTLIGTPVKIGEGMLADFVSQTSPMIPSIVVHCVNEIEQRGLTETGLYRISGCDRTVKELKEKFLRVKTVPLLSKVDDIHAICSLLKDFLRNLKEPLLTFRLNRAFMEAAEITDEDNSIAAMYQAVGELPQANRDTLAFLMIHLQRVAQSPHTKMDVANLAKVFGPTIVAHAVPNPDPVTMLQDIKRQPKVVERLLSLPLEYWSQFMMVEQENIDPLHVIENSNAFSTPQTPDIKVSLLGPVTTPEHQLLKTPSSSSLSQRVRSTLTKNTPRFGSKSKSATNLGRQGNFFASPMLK

[22] = tested on: INS1; test: INS-1E survival protection against cytokine death – cell-based, luminescence, retest, dose response (AID 449756); format: functional; settings: Rattus norvegicus;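 also: cell death triggered by IL-1 beta plus TNF-alpha plus IFN-gamma mixture; protective hits raise ATP signal compared with cytokine alone wells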
[23] = target: T5, Insulin-degrading enzyme (Homo sapiens, UniProt P14735); test: recombinant IDE activation, cell-free – biochemical, fluorescence polarization, counter-screen for IDE activator project, dose response (AID 588681)
T5 sequence (P14735 whole entry): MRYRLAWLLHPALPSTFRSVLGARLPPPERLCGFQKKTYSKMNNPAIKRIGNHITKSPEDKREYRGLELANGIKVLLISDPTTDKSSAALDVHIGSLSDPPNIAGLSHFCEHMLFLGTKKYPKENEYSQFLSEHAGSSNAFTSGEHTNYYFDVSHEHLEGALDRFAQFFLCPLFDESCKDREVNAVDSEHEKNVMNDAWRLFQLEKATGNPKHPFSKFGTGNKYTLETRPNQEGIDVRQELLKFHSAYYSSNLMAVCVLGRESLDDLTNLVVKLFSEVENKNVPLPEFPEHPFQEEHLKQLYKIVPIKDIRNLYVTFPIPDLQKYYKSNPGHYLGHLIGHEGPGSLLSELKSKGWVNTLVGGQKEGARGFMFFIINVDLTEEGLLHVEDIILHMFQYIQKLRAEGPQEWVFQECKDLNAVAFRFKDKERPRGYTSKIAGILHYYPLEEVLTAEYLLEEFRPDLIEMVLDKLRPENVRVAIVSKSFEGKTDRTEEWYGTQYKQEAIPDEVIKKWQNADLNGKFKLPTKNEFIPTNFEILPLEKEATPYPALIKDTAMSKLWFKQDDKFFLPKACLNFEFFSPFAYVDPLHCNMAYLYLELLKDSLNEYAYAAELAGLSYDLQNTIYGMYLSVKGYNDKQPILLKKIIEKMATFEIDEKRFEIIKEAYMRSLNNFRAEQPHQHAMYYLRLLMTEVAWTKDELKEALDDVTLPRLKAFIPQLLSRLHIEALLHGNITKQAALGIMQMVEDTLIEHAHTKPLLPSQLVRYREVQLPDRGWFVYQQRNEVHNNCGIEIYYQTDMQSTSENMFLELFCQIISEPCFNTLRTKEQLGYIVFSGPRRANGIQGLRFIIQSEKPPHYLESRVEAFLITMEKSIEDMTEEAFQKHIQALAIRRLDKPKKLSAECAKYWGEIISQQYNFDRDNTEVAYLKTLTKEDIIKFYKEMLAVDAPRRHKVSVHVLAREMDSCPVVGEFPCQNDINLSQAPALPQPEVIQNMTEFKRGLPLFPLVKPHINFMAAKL

[24] = target: T5, Insulin-degrading enzyme; test: cellular IDE activation of Abeta substrate cleavage – fluorescence polarization, HEK cells, dose response (AID 588439); format: functional, cell-based
[25] = tested on: HEK293; test: membrane integrity loss in HEK cells – cell-based, fluorescence, cytotoxicity control for IDE activator project, dose response (AID 588440); format: functional; settings: Homo sapiens;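 also: cytotoxicity by LDH release measuring loss of membrane integrity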
[26] = tested on: HEK293; test: optical interference in Abeta FP readout, dose response, artefact control for IDE activator project, biochemical, fluorescence polarization (AID 588442); format: functional, cell-based; settings: Homo sapiens

Protein Wnt-3a, sequence (P27467 whole entry): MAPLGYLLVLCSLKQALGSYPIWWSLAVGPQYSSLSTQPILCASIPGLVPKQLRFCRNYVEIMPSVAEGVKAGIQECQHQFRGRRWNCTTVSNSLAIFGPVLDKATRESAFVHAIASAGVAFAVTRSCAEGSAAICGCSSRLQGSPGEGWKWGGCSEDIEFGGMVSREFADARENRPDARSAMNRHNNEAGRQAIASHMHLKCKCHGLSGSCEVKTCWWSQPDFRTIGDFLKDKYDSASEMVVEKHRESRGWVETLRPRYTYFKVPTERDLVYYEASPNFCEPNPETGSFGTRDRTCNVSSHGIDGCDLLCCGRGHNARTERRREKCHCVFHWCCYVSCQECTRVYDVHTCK
ADP-ribosylation factor GTPase-activating protein 1, sequence (Q62848 whole entry): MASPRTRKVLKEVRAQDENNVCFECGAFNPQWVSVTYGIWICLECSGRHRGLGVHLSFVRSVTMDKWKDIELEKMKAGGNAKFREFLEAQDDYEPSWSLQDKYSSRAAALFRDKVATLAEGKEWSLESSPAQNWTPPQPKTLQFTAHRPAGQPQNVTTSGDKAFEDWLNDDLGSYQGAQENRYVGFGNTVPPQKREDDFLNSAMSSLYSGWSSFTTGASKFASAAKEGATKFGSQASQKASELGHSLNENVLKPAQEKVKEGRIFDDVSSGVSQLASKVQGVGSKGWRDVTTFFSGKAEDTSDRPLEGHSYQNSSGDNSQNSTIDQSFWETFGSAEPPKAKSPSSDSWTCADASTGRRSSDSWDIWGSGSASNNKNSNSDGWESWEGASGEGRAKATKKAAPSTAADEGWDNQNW
DNA repair and recombination protein RAD54-like, sequence (Q92698 whole entry): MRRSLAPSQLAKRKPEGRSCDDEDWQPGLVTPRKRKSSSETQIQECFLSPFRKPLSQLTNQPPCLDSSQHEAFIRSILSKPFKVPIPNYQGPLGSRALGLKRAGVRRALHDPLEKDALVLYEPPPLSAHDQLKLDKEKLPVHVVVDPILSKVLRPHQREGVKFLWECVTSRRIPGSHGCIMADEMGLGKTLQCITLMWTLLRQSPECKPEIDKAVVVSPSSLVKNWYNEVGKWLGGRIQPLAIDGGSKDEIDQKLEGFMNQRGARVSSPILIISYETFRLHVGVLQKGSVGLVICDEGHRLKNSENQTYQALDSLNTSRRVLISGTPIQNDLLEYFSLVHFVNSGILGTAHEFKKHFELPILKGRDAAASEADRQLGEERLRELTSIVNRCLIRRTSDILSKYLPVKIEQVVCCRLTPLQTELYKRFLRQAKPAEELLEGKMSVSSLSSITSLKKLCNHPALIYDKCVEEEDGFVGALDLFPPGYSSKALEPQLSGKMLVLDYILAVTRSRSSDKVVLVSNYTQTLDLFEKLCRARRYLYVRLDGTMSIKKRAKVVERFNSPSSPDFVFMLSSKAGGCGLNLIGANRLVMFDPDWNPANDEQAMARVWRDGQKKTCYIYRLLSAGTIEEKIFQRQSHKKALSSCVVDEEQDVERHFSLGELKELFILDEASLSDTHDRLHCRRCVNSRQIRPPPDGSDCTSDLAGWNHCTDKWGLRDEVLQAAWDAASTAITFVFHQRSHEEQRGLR
DNA (cytosine-5)-methyltransferase 1, sequence (P26358 whole entry): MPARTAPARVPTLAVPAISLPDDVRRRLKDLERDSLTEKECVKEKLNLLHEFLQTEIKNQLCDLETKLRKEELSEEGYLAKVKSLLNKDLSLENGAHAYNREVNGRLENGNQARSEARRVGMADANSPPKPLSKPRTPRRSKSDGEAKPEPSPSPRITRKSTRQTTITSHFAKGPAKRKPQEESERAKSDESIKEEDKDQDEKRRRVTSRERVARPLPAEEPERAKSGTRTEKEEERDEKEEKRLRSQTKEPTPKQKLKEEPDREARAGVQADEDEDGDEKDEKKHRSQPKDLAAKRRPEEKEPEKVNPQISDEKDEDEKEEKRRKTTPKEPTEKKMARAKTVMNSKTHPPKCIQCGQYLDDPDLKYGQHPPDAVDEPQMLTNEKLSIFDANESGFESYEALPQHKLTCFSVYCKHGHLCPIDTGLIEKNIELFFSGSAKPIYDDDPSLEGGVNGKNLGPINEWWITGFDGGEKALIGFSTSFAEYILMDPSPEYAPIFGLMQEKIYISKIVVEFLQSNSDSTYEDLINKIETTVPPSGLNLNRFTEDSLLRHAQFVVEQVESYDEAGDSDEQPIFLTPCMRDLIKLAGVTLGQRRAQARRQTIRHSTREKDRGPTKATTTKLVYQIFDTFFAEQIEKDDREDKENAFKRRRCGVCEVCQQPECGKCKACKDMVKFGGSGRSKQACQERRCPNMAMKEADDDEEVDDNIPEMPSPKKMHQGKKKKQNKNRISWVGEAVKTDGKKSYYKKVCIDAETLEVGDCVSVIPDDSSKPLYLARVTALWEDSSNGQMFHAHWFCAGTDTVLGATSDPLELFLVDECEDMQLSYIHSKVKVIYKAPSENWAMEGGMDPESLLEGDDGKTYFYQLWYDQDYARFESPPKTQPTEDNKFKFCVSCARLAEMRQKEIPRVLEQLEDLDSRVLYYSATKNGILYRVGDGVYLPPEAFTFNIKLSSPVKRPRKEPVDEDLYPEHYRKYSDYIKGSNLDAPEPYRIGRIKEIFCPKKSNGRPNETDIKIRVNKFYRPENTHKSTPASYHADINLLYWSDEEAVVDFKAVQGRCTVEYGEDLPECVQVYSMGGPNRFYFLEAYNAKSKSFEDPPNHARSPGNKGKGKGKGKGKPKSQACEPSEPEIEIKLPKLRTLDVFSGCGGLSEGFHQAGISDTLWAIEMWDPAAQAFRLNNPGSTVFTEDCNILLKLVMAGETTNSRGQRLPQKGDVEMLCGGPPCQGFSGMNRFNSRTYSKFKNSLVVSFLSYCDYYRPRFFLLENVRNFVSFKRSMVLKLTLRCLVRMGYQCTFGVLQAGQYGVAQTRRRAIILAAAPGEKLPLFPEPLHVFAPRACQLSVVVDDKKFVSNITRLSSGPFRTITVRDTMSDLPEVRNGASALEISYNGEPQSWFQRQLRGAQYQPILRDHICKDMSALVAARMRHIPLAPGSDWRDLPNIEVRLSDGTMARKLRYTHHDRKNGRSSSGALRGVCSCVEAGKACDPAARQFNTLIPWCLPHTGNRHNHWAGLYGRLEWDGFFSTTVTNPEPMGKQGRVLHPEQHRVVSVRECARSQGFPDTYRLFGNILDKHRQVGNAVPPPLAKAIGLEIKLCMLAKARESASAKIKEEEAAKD
Nuclear receptor subfamily 5 group A member 2, sequence (O00482 whole entry): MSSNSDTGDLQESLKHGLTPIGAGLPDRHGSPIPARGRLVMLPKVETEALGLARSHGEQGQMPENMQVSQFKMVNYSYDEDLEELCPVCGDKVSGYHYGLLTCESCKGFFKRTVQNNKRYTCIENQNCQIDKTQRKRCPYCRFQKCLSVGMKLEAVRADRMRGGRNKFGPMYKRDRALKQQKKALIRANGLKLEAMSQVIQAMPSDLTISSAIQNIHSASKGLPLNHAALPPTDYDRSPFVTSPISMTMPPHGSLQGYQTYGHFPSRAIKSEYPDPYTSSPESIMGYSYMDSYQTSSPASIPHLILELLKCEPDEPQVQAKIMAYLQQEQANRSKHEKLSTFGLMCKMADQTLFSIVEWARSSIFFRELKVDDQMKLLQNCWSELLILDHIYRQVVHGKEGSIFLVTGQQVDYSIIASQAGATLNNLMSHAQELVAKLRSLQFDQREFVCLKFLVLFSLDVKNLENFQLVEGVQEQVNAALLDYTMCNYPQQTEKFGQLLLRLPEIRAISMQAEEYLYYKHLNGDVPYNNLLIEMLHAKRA
Steroidogenic factor 1, sequence (Q13285 whole entry): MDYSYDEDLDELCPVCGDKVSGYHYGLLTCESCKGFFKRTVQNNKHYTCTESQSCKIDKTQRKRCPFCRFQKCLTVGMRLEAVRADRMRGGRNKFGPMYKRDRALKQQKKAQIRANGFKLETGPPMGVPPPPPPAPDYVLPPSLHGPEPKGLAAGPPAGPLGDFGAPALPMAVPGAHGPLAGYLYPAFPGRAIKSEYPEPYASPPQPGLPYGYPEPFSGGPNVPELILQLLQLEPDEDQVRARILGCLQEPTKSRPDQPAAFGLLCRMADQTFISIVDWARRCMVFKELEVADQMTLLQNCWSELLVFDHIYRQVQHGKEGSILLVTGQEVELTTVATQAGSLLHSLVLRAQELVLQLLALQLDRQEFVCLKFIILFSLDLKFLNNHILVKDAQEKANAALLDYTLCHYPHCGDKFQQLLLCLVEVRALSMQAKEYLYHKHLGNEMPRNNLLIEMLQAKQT
Dual specificity protein phosphatase 3, sequence (P51452 whole entry): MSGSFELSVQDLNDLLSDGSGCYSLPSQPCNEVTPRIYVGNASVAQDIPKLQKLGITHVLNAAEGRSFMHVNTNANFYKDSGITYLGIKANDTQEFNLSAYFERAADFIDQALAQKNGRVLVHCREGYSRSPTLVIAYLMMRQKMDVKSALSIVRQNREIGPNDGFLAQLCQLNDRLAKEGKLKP
Tyrosine-protein phosphatase non-receptor type 5, sequence (P54829 whole entry): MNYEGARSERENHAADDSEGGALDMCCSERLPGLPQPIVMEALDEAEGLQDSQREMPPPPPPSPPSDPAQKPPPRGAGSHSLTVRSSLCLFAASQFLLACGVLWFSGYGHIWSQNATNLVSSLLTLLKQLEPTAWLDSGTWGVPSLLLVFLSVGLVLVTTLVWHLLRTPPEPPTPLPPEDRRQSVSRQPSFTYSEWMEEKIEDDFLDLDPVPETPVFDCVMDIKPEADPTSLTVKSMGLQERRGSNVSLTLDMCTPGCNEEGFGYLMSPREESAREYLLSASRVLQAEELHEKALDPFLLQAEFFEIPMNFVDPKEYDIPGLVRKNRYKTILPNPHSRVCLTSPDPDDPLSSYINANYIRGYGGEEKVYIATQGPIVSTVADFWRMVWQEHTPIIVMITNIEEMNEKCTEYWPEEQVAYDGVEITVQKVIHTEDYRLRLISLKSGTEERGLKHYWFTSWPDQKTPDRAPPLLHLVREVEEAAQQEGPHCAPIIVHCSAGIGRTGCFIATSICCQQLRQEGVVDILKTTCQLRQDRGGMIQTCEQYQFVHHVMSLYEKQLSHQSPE

## COc1ccccc1Oc1nnnn1-c1ccc(C(N)=O)cc1
[1]
  IC50: 35.9 µM (inactive)
[2]
  IC50: 7.85 µM (active)
[3]
  IC50: 35.9 µM (inactive)

## Cc1cc(O)nc(SCC(=O)/C=C2\N(C)c3ccccc3C2(C)C)n1
[4]
  IC50: 50 µM (inactive)

## O=C(COC(=O)c1ccc[n+]([O-])c1)Nc1ccc([N+](=O)[O-])cc1Cl
[1]
  IC50: 3.98 µM (active)
[2]
  IC50: 4.98 µM (active)
[3]
  IC50: 35.9 µM (inactive)

## CCN(CC)CCCNc1nc2cc(OC)c(OC)cc2c2nc(-c3ccccc3)nn12
[5]
  IC50: 1.11 µM (active)
[6]
  IC50: 2.07 µM (active)
[7]
  EC50: 0.709 µM (active)
[8]
  CC50: 19.9 µM (active)
[9]
  EC50: 7.1 µM (active)
[10]
  EC50: 12 µM (active)
[11]
  EC50: 4.58 µM (active)
[12]
  IC50: > 20 µM (inactive)
[13]
  IC50: > 99 µM (inactive)
[14]
  AC50: 2.03 µM (active)

## Cc1cc(NS(=O)(=O)c2ccc(NC(=S)NC(=O)c3cccc(S(=O)(=O)N(C)C)c3)cc2)no1
[15]
  IC50: 46.6 µM (inactive)

## CC(C)OCCCN=C(S)Nc1ccc(S(N)(=O)=O)cc1
[16]
  IC50: 0.771 µM (active)
[17]
  IC50: 53 µM (inactive)
[18]
  IC50: 1.08 µM (active)

## Cc1c(OCC(=O)NC2CC(C)(C)NC(C)(C)C2)ccc2c1oc(=O)c1ccccc12
[14]
  AC50: 22.4 µM (active)
[19]
  AC50: 27.1 µM (active)

## C/C=C/C=C/C(=O)C1=C(O)[C@]2(C)C(=O)C(C)(O)[C@H]1[C@H]([C@]1(C)OC(O)=C(C)C1=O)[C@H]2C(=O)/C=C/C=C/C (some centres undefined)
[20]
  IC50: 5.92 µM (active)
[13]
  IC50: 5.25 µM (active)
[21]
  IC50: 122 µM (active)

## COCCCn1c(C)cc(C(=O)CN2c3cccc4cccc(c34)S2(=O)=O)c1C
[15]
  IC50: 60.2 µM (inactive)

## Cc1cc(/C=C2/SC(=S)N(c3ccc([N+](=O)[O-])cc3)C2=O)c(C)n1-c1cccnc1
[7]
  EC50: 0.915 µM (active)
[10]
  EC50: > 60 µM (inconclusive)
[22]
  AC50: 0.862 µM (active)
[4]
  IC50: 8.94 µM (active)

## CC(C)CN(C(=O)COC(=O)c1ccc(Br)cc1)c1c(N)n(Cc2ccccc2)c(=O)[nH]c1=O
[23]
  EC50: > 54.7 µM (inactive)
[24]
  EC50: > 54.7 µM (inactive)
[25]
  IC50: 13.4 µM (inactive)
[26]
  EC50: > 55.9 µM (inactive)

## CCOC(=O)C1(CC2CC2)CCN(Cc2cnc(N(C)C)s2)CC1
[23]
  EC50: > 54.7 µM (inactive)
[24]
  EC50: > 54.7 µM (inactive)
[25]
  IC50: > 89.3 µM (inactive)
[26]
  EC50: > 56 µM (inactive)
